From patent publication US9212173B2, “Pyrazole aminopyrimidine derivatives as LRRK2 modulators” (Genentech, Inc., priority 2012, dated 2015) come the findings set out here.

In this test the target is LRRK2 (Homo sapiens (Human), UniProt Q5S007, G2019S). Description: In Vitro LRRK2 Assay (LRRK2 Ki). It is filed as biochemical. The protocol:
In Vitro LRRK2 Lanthascreen Binding Assay
This assay was used to determine a compound's potency in inhibiting activity of LRRK2 by determining, Kiapp, IC50, or percent inhibition values.
Binding of the Alexa Fluor® “tracer” to a kinase is detected by addition of a Eu-labeled anti-GST antibody.
12 pt curve. […] Stamp 5 ul to assay plate. Final top test concentration 100 uM
In Reaction Buffer, 5 ul of DMSO (3%) was added to total and blank wells and 5 ul of Eu-labeled anti-GST antibody (6 nM) was added to blank wells. Add 5 ul LRRK2 (30 nM)/Eu-labeled anti-GST antibody (6 nM) mix to compound and total wells.
Incubate plates at room temperature for 1 hour on a plate shaker (gentle shaking). Read on Perkin Elmer EnVision reader HTRF protocol
Subtract mean background values from all data points. Calculate % of control for each test value. Plot % of control vs Compound concentration. Calculate Ki Value (xlfit curve fitting-Morrison equation). Results expressed as a Ki in μM. Equation for Ki: Y=V0*(1−((x+Ki*(1+S/Km)+Et)/(2*Et)−(((x+Ki*(1+S/Km)+Et)^2−(4*Et*x))^0.5)/(2*Et)))
This assay was used to determine a compound's potency in inhibiting activity of LRRK2 by determining, Kiapp, IC50, or percent inhibition values. In a polypropylene plate, LRRK2, fluorescently-labeled peptide substrate, ATP and test compound were incubated together. Using a LabChip 3000 (Caliper Life Sciences), after the reaction the substrate was separated by capillary electrophoresis into two populations: phosphorylated and unphosphorylated. The relative amounts of each were quantitated by fluorescence intensity. LRRK2 Ki was determined according to the equation: Y=V0*(1−((x+Ki*(1+S/Km)+Et)/(2*Et)−(((x+Ki*(1+S/Km)+Et)^2−(4*Et*x))^0.5)/(2*Et))).
Ki values in Table 4 and elsewhere herein are shown in μM.
For serial dilutions, 34.6 μl DMSO was added to columns 3-24.
In Complete Reaction Buffer, substrate was diluted to 4 μM. Equal volumes of Complete Reaction Buffer and 4 μM substrate were combined to obtain the blank. Equal volumes of Complete Reaction Buffer and 4 μM substrate were combined and to the combined solution was added 2× final LRRK2 concentration.
To a 50 μl polypropylene plate, 5 μl/well buffer/substrate was added by hand to Blank wells. A Biomek FX was used to start the kinase reaction (“PLK SAR 23 ATP”). The following were added to the appropriate wells:
The plate was incubated for 2 hours in the dark. Biomek FX was used to stop the kinase reaction (“PLK Stop”), and 10 μl/well Stop solution was added to the Assay Plate. Results were read on the LabChip 3000.
The LabChip 3000 was run using the job “LRRK2 IC50” with the following job settings: […]

Chain of LRRK2 (Q5S007 whole entry G2019S): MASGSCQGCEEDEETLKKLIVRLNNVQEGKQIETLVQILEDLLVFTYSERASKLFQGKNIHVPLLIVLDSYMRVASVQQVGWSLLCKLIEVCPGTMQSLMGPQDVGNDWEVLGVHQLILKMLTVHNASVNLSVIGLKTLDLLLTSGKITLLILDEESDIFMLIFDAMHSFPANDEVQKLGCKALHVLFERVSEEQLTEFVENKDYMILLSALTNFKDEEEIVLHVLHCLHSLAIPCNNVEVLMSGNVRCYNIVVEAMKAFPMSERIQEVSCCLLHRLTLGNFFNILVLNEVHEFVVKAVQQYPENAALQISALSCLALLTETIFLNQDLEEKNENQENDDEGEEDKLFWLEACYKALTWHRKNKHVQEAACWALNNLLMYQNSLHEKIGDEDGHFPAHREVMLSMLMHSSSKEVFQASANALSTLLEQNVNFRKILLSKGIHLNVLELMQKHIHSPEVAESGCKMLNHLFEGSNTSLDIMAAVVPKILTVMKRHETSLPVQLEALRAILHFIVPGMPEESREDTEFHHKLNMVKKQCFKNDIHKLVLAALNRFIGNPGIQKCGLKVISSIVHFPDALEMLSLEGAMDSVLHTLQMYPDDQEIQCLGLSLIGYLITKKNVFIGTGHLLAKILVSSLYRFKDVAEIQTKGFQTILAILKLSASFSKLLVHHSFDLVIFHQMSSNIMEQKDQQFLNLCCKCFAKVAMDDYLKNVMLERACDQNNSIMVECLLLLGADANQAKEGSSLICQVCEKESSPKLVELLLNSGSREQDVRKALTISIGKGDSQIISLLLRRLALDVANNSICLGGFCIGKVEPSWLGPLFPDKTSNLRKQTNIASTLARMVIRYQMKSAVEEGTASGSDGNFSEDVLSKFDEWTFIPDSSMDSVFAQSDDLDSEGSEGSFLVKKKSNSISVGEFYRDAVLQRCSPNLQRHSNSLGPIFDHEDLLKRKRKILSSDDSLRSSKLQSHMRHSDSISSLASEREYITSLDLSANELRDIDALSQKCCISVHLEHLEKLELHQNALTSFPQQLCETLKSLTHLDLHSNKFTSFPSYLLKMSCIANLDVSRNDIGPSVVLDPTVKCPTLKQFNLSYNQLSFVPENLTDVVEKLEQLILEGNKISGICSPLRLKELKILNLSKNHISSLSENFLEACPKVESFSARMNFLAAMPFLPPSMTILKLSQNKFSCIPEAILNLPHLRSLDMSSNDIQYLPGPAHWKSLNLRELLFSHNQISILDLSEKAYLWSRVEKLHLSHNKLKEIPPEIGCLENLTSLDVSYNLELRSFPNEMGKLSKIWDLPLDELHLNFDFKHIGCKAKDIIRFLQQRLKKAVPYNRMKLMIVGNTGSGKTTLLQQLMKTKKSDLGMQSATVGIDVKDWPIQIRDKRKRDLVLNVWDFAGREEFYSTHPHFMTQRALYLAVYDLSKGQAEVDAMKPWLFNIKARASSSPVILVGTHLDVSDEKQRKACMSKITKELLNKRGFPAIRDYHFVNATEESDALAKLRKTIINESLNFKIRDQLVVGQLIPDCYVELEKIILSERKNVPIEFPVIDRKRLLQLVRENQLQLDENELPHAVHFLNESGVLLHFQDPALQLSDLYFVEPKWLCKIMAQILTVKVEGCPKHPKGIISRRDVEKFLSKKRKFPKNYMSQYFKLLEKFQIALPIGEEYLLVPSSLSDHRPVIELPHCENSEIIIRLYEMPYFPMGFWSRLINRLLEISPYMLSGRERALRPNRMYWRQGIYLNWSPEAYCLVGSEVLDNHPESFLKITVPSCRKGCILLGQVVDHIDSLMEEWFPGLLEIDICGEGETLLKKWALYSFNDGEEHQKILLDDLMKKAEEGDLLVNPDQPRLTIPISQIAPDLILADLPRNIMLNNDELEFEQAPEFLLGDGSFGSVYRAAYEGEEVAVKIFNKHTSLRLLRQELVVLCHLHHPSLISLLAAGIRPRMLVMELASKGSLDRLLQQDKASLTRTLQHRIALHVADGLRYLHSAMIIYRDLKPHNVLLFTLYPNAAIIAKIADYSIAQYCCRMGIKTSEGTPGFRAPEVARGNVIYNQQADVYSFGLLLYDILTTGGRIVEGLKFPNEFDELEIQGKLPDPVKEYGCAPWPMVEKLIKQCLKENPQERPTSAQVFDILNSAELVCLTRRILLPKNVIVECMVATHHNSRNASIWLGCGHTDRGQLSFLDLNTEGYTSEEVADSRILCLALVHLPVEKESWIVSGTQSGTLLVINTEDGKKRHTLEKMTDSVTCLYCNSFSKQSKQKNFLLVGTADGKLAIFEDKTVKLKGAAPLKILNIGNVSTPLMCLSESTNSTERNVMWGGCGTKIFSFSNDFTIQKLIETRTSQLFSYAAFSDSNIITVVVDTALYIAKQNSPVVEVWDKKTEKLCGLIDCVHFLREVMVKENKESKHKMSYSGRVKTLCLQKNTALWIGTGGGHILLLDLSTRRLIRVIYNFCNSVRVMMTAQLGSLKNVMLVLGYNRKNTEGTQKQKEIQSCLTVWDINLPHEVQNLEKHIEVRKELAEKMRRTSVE

The Ki is the equilibrium dissociation constant of an inhibitor or competing ligand from its target. Low values mean a stronger hold on the target, high ones a looser hold on the target. Compound `CNc1nc(Nc2cn(C3CCOC[C@H]3F)nc2C)ncc1C(F)(F)F` (stereo in doubt) [Example 37, N2-(1-(3-fluorotetrahydro-2H-pyran-4-yl)-3-methyl-1H-pyrazol-4-yl)-N4-methyl-5-(trifluoromethyl)pyrimidine-2,4-diamine] yielded a Ki of 0.6 nM.

For the compound `CNc1nc(Nc2cnn(C3CCOC[C@H]3F)c2C)ncc1C(F)(F)F` (stereo in doubt) [Example 39, N2-(1-(3-fluorotetrahydro-2H-pyran-4-yl)-5-methyl-1H-pyrazol-4-yl)-N4-methyl-5-(trifluoromethyl)pyrimidine-2,4-diamine], the Ki turned out to be 2.8 nM.

Consider `Cc1c(Nc2ncc(C#N)c(NC3CC3)n2)cnn1C1CCOCC1` [Example 3, 4-(cyclopropylamino)-2-((5-methyl-1-(tetrahydro-2H-pyran-4-yl)-1H-pyrazol-4-yl)amino)pyrimidine-5-carbonitrile], for which the affinity corresponds to a Ki of 7.3 nM.

Consider `CCNc1nc(Nc2cnn(C3CCOCC3)c2Cl)ncc1C#N` [Example 7, 2-((5-chloro-1-(tetrahydro-2H-pyran-4-yl)-1H-pyrazol-4-yl)amino)-4-(ethylamino)pyrimidine-5-carbonitrile], for which affinity was put at a Ki of 6.2 nM.

Compound `CNc1nc(Nc2cn(C(C)(C)CO)nc2C)ncc1C(F)(F)F` [Example 9, 2-methyl-2-(3-methyl-4-((4-(methylamino)-5-(trifluoromethyl)pyrimidin-2-yl)amino)-1H-pyrazol-1-yl)propan-1-ol] displayed a Ki of 4.8 nM.

Compound `CNc1nc(Nc2cnn(CC3(O)CC3)c2Cl)ncc1C(F)(F)F` [Example 10, 1-((5-chloro-4-((4-(methylamino)-5-(trifluoromethyl)pyrimidin-2-yl)amino)-1H-pyrazol-1-yl)methyl)cyclopropanol] had a Ki of 5 nM. The Ki values of the last two compounds are within 1.5-fold of each other.

`CNc1nc(Nc2cn(C3(C)COC3)nc2C)ncc1C(F)(F)F` [Example 15, N4-methyl-N2-(3-methyl-1-(3-methyloxetan-3-yl)-1H-pyrazol-4-yl)-5-(trifluoromethyl)pyrimidine-2,4-diamine] came in with an inhibitory constant (Ki) of 4.8 nM.

Compound `CNc1nc(Nc2cn(C(C)(C)c3nc(C)cn3C)nc2C)ncc1C(F)(F)F` [Example 16, N2-(1-(2-(1,4-dimethyl-1H-imidazol-2-yl)propan-2-yl)-3-methyl-1H-pyrazol-4-yl)-N4-methyl-5-(trifluoromethyl)pyrimidine-2,4-diamine] came in with an inhibition constant (Ki) of 140 nM.

In turn, `CNc1nc(Nc2cn(C(C)(C)c3ncc(C)o3)nc2C)ncc1C(F)(F)F` [Example 18, N4-methyl-N2-(3-methyl-1-(2-(5-methyloxazol-2-yl)propan-2-yl)-1H-pyrazol-4-yl)-5-(trifluoromethyl)pyrimidine-2,4-diamine] showed a Ki of 3.82 nM.

As for `CCNc1nc(Nc2cn(C3(C)COC3)nc2C)ncc1C(F)(F)F` [Example 19, N4-ethyl-N2-(3-methyl-1-(3-methyloxetan-3-yl)-1H-pyrazol-4-yl)-5-(trifluoromethyl)pyrimidine-2,4-diamine], the Ki was found to be 0.975 nM.

Compound `CCNc1nc(Nc2cn(S(=O)(=O)CCOC)nc2C)ncc1C(F)(F)F` [Example 20, N4-ethyl-N2-(1-((2-methoxyethyl)sulfonyl)-3-methyl-1H-pyrazol-4-yl)-5-(trifluoromethyl)pyrimidine-2,4-diamine] yielded a Ki of 0.96 nM.

Turning to `CNc1nc(Nc2cn(S(=O)(=O)CCOC)nc2C)ncc1C(F)(F)F` [Example 21, N2-(1-((2-methoxyethyl)sulfonyl)-3-methyl-1H-pyrazol-4-yl)-N4-methyl-5-(trifluoromethyl)pyrimidine-2,4-diamine], the affinity corresponds to a Ki of 1.85 nM.

In turn, `CNc1nc(Nc2cnn(S(=O)(=O)CCOC)c2C)ncc1C(F)(F)F` [Example 22, N2-(1-((2-methoxyethyl)sulfonyl)-5-methyl-1H-pyrazol-4-yl)-N4-methyl-5-(trifluoromethyl)pyrimidine-2,4-diamine] had a Ki of 6.46 nM.
